Data as given in patent US8889112B2, “Ophthalmic formulations including selective alpha 1 antagonists” (Ocularis Pharma, LLC, priority 1999, dated 2014).
Several values for one entry are separate records, joined by “and”; a condition that tells them apart may be missing. Equal values may be shown once. Where a name gives a salt, the structure may show the parent alone. Read-outs that look alike come from different tables or passages of the source.

What was measured:
human eye [1] = conditions: for Effectiveness in reducing pupil dilation in dim light: topical, phenoxybenzamine, prazosin, tolamine 0.1% to 5%, labetalol S,S and S,R isomers 0.1% to 2%; for Duration of effect: single administration per day, eye drop or drop on soft contact lens
Procedure: A preferred concentration of about 1 to about 5 milligrams of active agent per cc of total formulation volume in an embodiment may be administered by placing a single drop on a moist soft contact lens, and inserting the lens for about 15 minutes to about 45 minutes at one time per day. […] The drop may be administered in a one to five milligram per cc concentration directly to the eye as a recommended daily or BID dosing according to an embodiment of the present invention.
A 5 mg/ml vial of phentolamine was diluted in an artificial tear formulation to approximately 6.0 cc of solution.
Labetalol, a potent beta adrenergic receptor antagonist, consists of four isomers, two of which have some alpha 1 antagonist activity.

human eye [2] = test: Effect of alpha adrenergic receptor antagonists on pupil dilation (Table 1, patients); type: in vivo; conditions: for Effect on pupil diam. in darkness (mm): pupil diameter after drug, from 7.5 mm before, topical, 5 mg/ml (phentolamine 3.3 mg/ml via soft contact lens for 30 minutes)
From the text: However, only the imidazolines obtain the desired reduction in dilation without causing excessive redness of the eye. In addition, the present invention in an embodiment provides a sub-class of alpha antagonists that can act as a sole active component in an ophthalmic medication to effectively reduce pupil light reflex while providing minimal, if any, redness response upon application thereof to the eye. In an embodiment, the sub-class of alpha antagonists includes alpha 1 selective antagonists, including alpha 1a selective antagonists, such as tamsulosin.

human eye [3] = conditions: cited from earlier work
human eye [4] = test: Effect of phentolamine eye drops on visual acuity in dim light (Table 3); type: in vivo; conditions: one line per subject
From the text: The results illustrate the benefit that is derived from reducing pupil diameter by 1 mm or more and/or pupil area by 20% or more in dim light conditions pursuant to an embodiment. In this regard, a significant increase in spherical aberrations is typically found per each one millimeter of increase in pupil size diameter above 5 mm. These aberrations generally increase as a function of severity of the refractive error, particularly increases in the myopic spherical equivalent of refractive error. Coma may increase, as well as other higher order aberrations, as pupil size diameter increases, again especially as refractive error increases. Thus, a reduction in pupil diameter by 1 mm or more and/or pupil area by 20% or more can effectively act to improve vision in dim light conditions. As previously discussed, the present invention contemplates the use of a single active agent, preferably an alpha 1a selective antagonist, that can optimize pupil light reflex while minimizing, if not eliminating, redness. [table]

human eye [5] = test: Effect of phentolamine 0.35% on pupil diameter in dim and bright light (Table 2); type: in vivo
[6] = duration of effect on pupil, 5 mg/ml (phentolamine 3.3 mg/ml via soft contact lens)
[7] = pupil diameter after 3.3 mg/cc, single drop on soft contact lens placed for 30 minutes, one line per subject
[8] = pupil diameter before drug (baseline), one line per subject

Cc1ccccc1N1CCN(CCc2nnc3n2CCCC3)CC1 [Dapiprazole, 5,6,7,8 tetrahydro-3-[2-(4-o,tolyl-1-piperazinyl)ethyl]-8-triazolo[4,3-a]pyridine hydrochloride]
Redness / vasodilation of the eye (human eye [1]; in vivo): unacceptably high levels of eye redness with severe blood vessel dilation
Effectiveness in reducing pupil dilation in dim light (human eye [1]): minimal if any clinically significant effect
Duration (human eye [2]; [6]): 5 to 12 h
Effect on pupil diam. in darkness (mm) (human eye [2]): 7.5 -> 7 mm
Redness and chemosis upon instillation (human eye [3]; 0.5% solution): substantial increased redness and conjunctival chemosis
Effectiveness in reducing pupil size in dim light (human eye [3]; topical, compared to phentolamine and phenoxybenzamine, U.S. Pat. No. 6,515,006): not as effective

CC(CCc1ccccc1)NCC(O)c1ccc(O)c(C(N)=O)c1 (stereo not drawn) [Labetalol]
Effectiveness in reducing pupil dilation in dim light (human eye [1]): modestly effective

CC(COc1ccccc1)N(CCCl)Cc1ccccc1 (stereo not drawn) [Phenoxybenzamine]
Redness / vasodilation of the eye (human eye [1]; topical application as only active compound): induce much more vasodilation and congestion
Redness / vasodilation of the eye (human eye [1]; topical application as only active compound, listed as phenoxybenzamine): unacceptably high level of redness
Effectiveness in reducing pupil dilation in dim light (human eye [1]): have not been as effective as phentolamine
Duration (hrs) (human eye [2]; [6]): ≧20 hrs
Effect on pupil diam. in darkness (mm) (human eye [2]): 7.5 -> 5.5 mm

Cc1ccc(N(CC2=NCCN2)c2cccc(O)c2)cc1 [Phentolamine]
Pupil Diameter in Dim Light Post-Drug mm (human eye [4]; after phentolamine eye drops): 6.9 mm (2×) and 7.1 mm (2×) and 5.9 mm (2×) and 7.5 mm and 6.5 mm and 7.4 mm
Pupil Diameter in Dim Light Pre-Drug mm (human eye [4]; before drug (baseline)): 7.7 mm and 8.5 mm and 7.9 mm (3×) and 7.8 mm (2×) and 8.2 mm (2×)
Pupil Diameter Change mm (human eye [4]; reduction in dim light, pre minus post): 0.8 mm (2×) and 1.4 mm (2×) and 2.0 mm and 0.9 mm and 0.4 mm and 1.1 mm and 1.9 mm
Pupil Area Change % (human eye [4]; reduction of pupil area in dim light): 20% and 30% and 44% and 22% and 10% and 25% and 32% and 19% and 43%
Dim Light Contrast Post-Drug (human eye [4]; visual acuity after phentolamine eye drops): 20/25 and 20/22 and 20/20 and 20/24 and 20/38 and 20/21 (2×) and 20/32 and 20/50
Dim Light Contrast Pre-Drug (human eye [4]; visual acuity before drug (baseline)): 20/29 (2×) and 20/35 and 20/32 (2×) and 20/63 and 20/38 and 20/40 and 20/53
Redness / vasodilation of the eye (human eye [1]; in vivo): very slight, transient redness
Duration of effect (human eye [1]): 20 to 24 h
Duration of effect (human eye [1]; listed as phentolamine): 20 to 24 h
Duration (human eye [2]; [6]): 20 to 40 h
Effect on pupil diam. in darkness (mm) (human eye [2]): 7.5 -> 4.0 mm
Bright Light Post mm (human eye [5]; [7]): 3.0 mm (2×) and 2.5 mm (3×)
Dim Light Post mm (human eye [5]; [7]): 4.0 mm (3×) and 3.0 mm and 3.5 mm
Bright Light Pre mm (human eye [5]; [8]): 4.0 mm and 3.0 mm (3×) and 3.5 mm
Dim Light Pre mm (human eye [5]; [8]): 7.5 mm (2×) and 3.5 mm and 4.0 mm and 7.0 mm
halos reduced (human eye [5]; subject, post drug): 70% reduced; depth

COc1cc2nc(N3CCN(C(=O)c4ccco4)CC3)nc(N)c2cc1OC [Prazosin]
Duration (human eye [2]; [6]): 5 to 12 h
Effect on pupil diam. in darkness (mm) (human eye [2]): 7.5 -> 6 mm

CC[C@@H]1C(=O)OC[C@@H]1Cc1cncn1C [pilocarpine]
Duration of miotic effect (human eye [3]; in vivo): only a few hours
Side effects (human eye [3]; in vivo): brow ache, ciliary muscle contraction and pseudo myopia, excessive dimness when first applied
Pupil size when first applied (human eye [3]; usually): less than 2 mm

Tolamine
Effectiveness in reducing pupil dilation in dim light (human eye [1]): slight pupillary reduction in dilation in dim light but appears to be less effective than phentolamine
Duration (human eye [2]; [6]): 5 to 12 h
Effect on pupil diam. in darkness (mm) (human eye [2]): 7.5 -> 6 mm
